Measured values reported in PubChem BioAssay (NCI).
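GI50 = concentration required for 50% inhibition of growth. Definition used: TGI = concentration required for complete inhibition of growth.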

Legend:
Test in all cases: growth of human tumour cells (NCI), 384-well format
786-0 renal = tested on: 786-0 renal
A498 renal = tested on: A498 renal
A549 NSCLC = tested on: A549 NSCLC
ACHN renal = tested on: ACHN renal
BT-549 breast = tested on: BT-549 breast
CAKI-1 renal = tested on: CAKI-1 renal
COLO 205 colon = tested on: COLO 205 colon
DU-145 prostate = tested on: DU-145 prostate
EKVX NSCLC = tested on: EKVX NSCLC
HCC-2998 colon = tested on: HCC-2998 colon
HCT-116 colon = tested on: HCT-116 colon
HCT-15 colon = tested on: HCT-15 colon
HL-60(TB) leukemia = tested on: HL-60(TB) leukemia
HOP-62 NSCLC = tested on: HOP-62 NSCLC
HOP-92 NSCLC = tested on: HOP-92 NSCLC
HS 578T breast = tested on: HS 578T breast
HT29 colon = tested on: HT29 colon
IGROV1 ovarian = tested on: IGROV1 ovarian
KM12 colon = tested on: KM12 colon
LOX IMVI melanoma = tested on: LOX IMVI melanoma
M14 melanoma = tested on: M14 melanoma
MALME-3M melanoma = tested on: MALME-3M melanoma
MCF7 breast = tested on: MCF7 breast
MDA-MB-231 breast = tested on: MDA-MB-231 breast
MDA-MB-435 melanoma = tested on: MDA-MB-435 melanoma
MDA-MB-468 breast = tested on: MDA-MB-468 breast
MOLT-4 leukemia = tested on: MOLT-4 leukemia
NCI-H226 lung = tested on: NCI-H226 lung
NCI-H23 lung = tested on: NCI-H23 lung
NCI-H322M lung = tested on: NCI-H322M lung
NCI-H460 NSCLC = tested on: NCI-H460 NSCLC
NCI-H522 lung = tested on: NCI-H522 lung
NCI/ADR-RES ovarian = tested on: NCI/ADR-RES ovarian
OVCAR-3 ovarian = tested on: OVCAR-3 ovarian
OVCAR-4 ovarian = tested on: OVCAR-4 ovarian
OVCAR-5 ovarian = tested on: OVCAR-5 ovarian
OVCAR-8 ovarian = tested on: OVCAR-8 ovarian
PC-3 prostate = tested on: PC-3 prostate
RPMI-8226 leukemia = tested on: RPMI-8226 leukemia
RXF 393 renal = tested on: RXF 393 renal
SF-268 CNS = tested on: SF-268 CNS
SF-295 CNS = tested on: SF-295 CNS
SF-539 CNS = tested on: SF-539 CNS
SK-MEL-28 melanoma = tested on: SK-MEL-28 melanoma
SK-MEL-5 melanoma = tested on: SK-MEL-5 melanoma
SK-OV-3 ovarian = tested on: SK-OV-3 ovarian
SN12C renal = tested on: SN12C renal
SNB-19 CNS = tested on: SNB-19 CNS
SNB-75 CNS = tested on: SNB-75 CNS
SR leukemia = tested on: SR leukemia
SW-620 colon = tested on: SW-620 colon
T-47D breast = tested on: T-47D breast
TK-10 renal = tested on: TK-10 renal
U251 glioblastoma = tested on: U251 glioblastoma
UACC-257 melanoma = tested on: UACC-257 melanoma
UACC-62 melanoma = tested on: UACC-62 melanoma
UO-31 renal = tested on: UO-31 renal

`C=C1C[C@@H]2[C@H](CC[C@]3(C)C(=O)CC[C@@H]23)[C@@]2(C)C=CC(=O)C=C12` gave a GI50 (786-0 renal) of 19.8 µM, a TGI (786-0 renal) of 45.8 µM and a GI50 (A498 renal) of 23.3 µM. For the same compound, the TGI (A498 renal) was 47.8 µM, the GI50 (A549 NSCLC) was 30.1 µM and the TGI (A549 NSCLC) was > 100 µM. For the same compound, the GI50 (ACHN renal) was 22.3 µM, the TGI (ACHN renal) was 42.6 µM and the GI50 (BT-549 breast) was 14.9 µM. For the same compound, the TGI (BT-549 breast) was 31.1 µM, the GI50 (CAKI-1 renal) was 27 µM and the TGI (CAKI-1 renal) was 70.7 µM. For the same compound, the GI50 (COLO 205 colon) was 20.7 µM, the TGI (COLO 205 colon) was 37.4 µM and the GI50 (DU-145 prostate) was 35.2 µM. For the same compound, the TGI (DU-145 prostate) was > 100 µM, the GI50 (EKVX NSCLC) was 28.4 µM and the TGI (EKVX NSCLC) was 75.7 µM. It also gave a GI50 (HCC-2998 colon) of 15.8 µM, a TGI (HCC-2998 colon) of 30 µM and a GI50 (HCT-116 colon) of 27.5 µM. For the same compound, the TGI (HCT-116 colon) was > 100 µM, the GI50 (HCT-15 colon) was 19 µM and the TGI (HCT-15 colon) was > 100 µM. For the same compound, the GI50 (HL-60(TB) leukemia) was 12.8 µM, the TGI (HL-60(TB) leukemia) was 25.6 µM and the GI50 (HOP-62 NSCLC) was 23.1 µM. For the same compound, the TGI (HOP-62 NSCLC) was 56.2 µM, the GI50 (HOP-92 NSCLC) was > 100 µM and the TGI (HOP-92 NSCLC) was > 100 µM. The GI50 (HS 578T breast) was 12.3 µM, the TGI (HS 578T breast) was 27.2 µM and the GI50 (HT29 colon) was 23 µM. The TGI (HT29 colon) was 99.1 µM, the GI50 (IGROV1 ovarian) was 32.6 µM and the TGI (IGROV1 ovarian) was > 100 µM. It also gave a GI50 (KM12 colon) of 28 µM, a TGI (KM12 colon) of 94.9 µM and a GI50 (LOX IMVI melanoma) of 12.5 µM. The TGI (LOX IMVI melanoma) was 27.1 µM, the GI50 (M14 melanoma) was 29.3 µM and the TGI (M14 melanoma) was > 100 µM. It also gave a GI50 (MALME-3M melanoma) of 12.2 µM, a TGI (MALME-3M melanoma) of 25.9 µM and a GI50 (MCF7 breast) of 18.6 µM. For the same compound, the TGI (MCF7 breast) was 82.4 µM, the GI50 (MDA-MB-231 breast) was 28.8 µM and the TGI (MDA-MB-231 breast) was 85.1 µM. The GI50 (MDA-MB-435 melanoma) was 82.9 µM, the TGI (MDA-MB-435 melanoma) was > 100 µM and the GI50 (MDA-MB-468 breast) was 6.15 µM. For the same compound, the TGI (MDA-MB-468 breast) was 25.8 µM, the GI50 (MOLT-4 leukemia) was 13.7 µM and the TGI (MOLT-4 leukemia) was 27 µM. For the same compound, the GI50 (NCI-H226 lung) was 20.5 µM, the TGI (NCI-H226 lung) was 39.2 µM and the GI50 (NCI-H23 lung) was 17.9 µM. For the same compound, the TGI (NCI-H23 lung) was 36.2 µM, the GI50 (NCI-H322M lung) was 25.1 µM and the TGI (NCI-H322M lung) was 74.6 µM. For the same compound, the GI50 (NCI-H460 NSCLC) was 21.1 µM, the TGI (NCI-H460 NSCLC) was 40.6 µM and the GI50 (NCI-H522 lung) was 12.2 µM. The TGI (NCI-H522 lung) was 24.8 µM, the GI50 (NCI/ADR-RES ovarian) was 17.9 µM and the TGI (NCI/ADR-RES ovarian) was 35.3 µM. For the same compound, the GI50 (OVCAR-3 ovarian) was 14.8 µM, the TGI (OVCAR-3 ovarian) was 35.9 µM and the GI50 (OVCAR-4 ovarian) was 20.9 µM. For the same compound, the TGI (OVCAR-4 ovarian) was 40.2 µM, the GI50 (OVCAR-5 ovarian) was > 100 µM and the TGI (OVCAR-5 ovarian) was > 100 µM. The GI50 (OVCAR-8 ovarian) was 20.3 µM, the TGI (OVCAR-8 ovarian) was 47.2 µM and the GI50 (PC-3 prostate) was 30.3 µM. The TGI (PC-3 prostate) was > 100 µM, the GI50 (RPMI-8226 leukemia) was 17.8 µM and the TGI (RPMI-8226 leukemia) was 32.2 µM. The GI50 (RXF 393 renal) was 5.67 µM, the TGI (RXF 393 renal) was 17.4 µM and the GI50 (SF-268 CNS) was 27.4 µM. The TGI (SF-268 CNS) was 74.9 µM, the GI50 (SF-295 CNS) was 57.1 µM and the TGI (SF-295 CNS) was > 100 µM. For the same compound, the GI50 (SF-539 CNS) was 19.6 µM, the TGI (SF-539 CNS) was 38.9 µM and the GI50 (SK-MEL-28 melanoma) was > 100 µM. The TGI (SK-MEL-28 melanoma) was > 100 µM, the GI50 (SK-MEL-5 melanoma) was 12.9 µM and the TGI (SK-MEL-5 melanoma) was 29.1 µM. For the same compound, the GI50 (SK-OV-3 ovarian) was 82.2 µM, the TGI (SK-OV-3 ovarian) was > 100 µM and the GI50 (SN12C renal) was 32.4 µM. For the same compound, the TGI (SN12C renal) was 98.2 µM, the GI50 (SNB-19 CNS) was 46.5 µM and the TGI (SNB-19 CNS) was > 100 µM. It also gave a GI50 (SNB-75 CNS) of 25.9 µM, a TGI (SNB-75 CNS) of 74 µM and a GI50 (SR leukemia) of 18 µM. The TGI (SR leukemia) was 32.1 µM, the GI50 (SW-620 colon) was 33.9 µM and the TGI (SW-620 colon) was > 100 µM. For the same compound, the GI50 (T-47D breast) was 27.6 µM, the TGI (T-47D breast) was 98.6 µM and the GI50 (TK-10 renal) was > 100 µM. The TGI (TK-10 renal) was > 100 µM, the GI50 (U251 glioblastoma) was 21.4 µM and the TGI (U251 glioblastoma) was 44.4 µM. The GI50 (UACC-257 melanoma) was 17.3 µM, the TGI (UACC-257 melanoma) was 53.1 µM and the GI50 (UACC-62 melanoma) was 21.9 µM. The TGI (UACC-62 melanoma) was > 100 µM, the GI50 (UO-31 renal) was 21.1 µM and the TGI (UO-31 renal) was 39.5 µM.
